Laboratory results as given in patent US6525001B1, “Substituted pyrimidine and pyridine herbicides” (Mid-American Commercialization Corporation, priority 1997, dated 2003).

Legend:
Assay in all cases: Test B pre-/postemergence
Assay type in all cases: in vivo
Design in all cases: key: 0 is no effect; 10 is complete control
[1] = test system: bedstraw (Galium aparine)
In short: (§1)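 Compounds in a surfactant-containing, non-phytotoxic solvent blend are applied to freshly planted seed (preemergence) and, concurrently, to seedlings of 2 to 18 cm at 1–4 leaves (postemergence). Plants stay in the greenhouse twelve to sixteen days and are then scored visually from 0 (no effect) to 10 (complete control).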

[2] = test system: blackgrass (Alopecurus myosuroides)
In short: as §1

[3] = test system: broadleaf signalgrass (Brachiaria decumbens)
In short: as §1

[4] = test system: cocklebur (Xanthium strumarium)
In short: as §1

corn (Zea mays) = test system: corn (Zea mays)
In short: as §1

[5] = test system: crabgrass (Digitaria sanguinalis)
In short: as §1

[6] = test system: giant foxtail (Setaria faberii)
In short: as §1

[7] = test system: momingglory (Ipomoea hederacea)
In short: as §1

[8] = test system: pigweed (Amaranthus retroflexus)
In short: as §1

[9] = test system: purple nutsedge (Cyperus rotundus)
In short: as §1

[10] = test system: sugar beet (Beta vulgaris)
In short: as §1

[11] = test system: velvetleaf (Abutilon theophrasti)
In short: as §1

[12] = test system: wheat (Triticum aestivum)
In short: as §1

wild oat (Avena fatua) = test system: wild oat (Avena fatua)
In short: as §1

[13] = Preemergence, Rate 62 g/ha, scale of 0 to 10

Cc1cnc(-n2ccc(C(F)(F)F)n2)nc1C(=O)c1ccc(C(F)(F)F)cc1 [Compound 65]
5: Plant response rating, Morningglory ([7]; Rate 500 g/ha, Preemergence)
8: Plant response rating, Morningglory ([7]; Rate 250 g/ha, Postemergence) | Plant response rating, Sugarbeets ([10]; Rate 250 g/ha, Postemergence) | Plant response rating, Sugarbeets ([10]; Rate 500 g/ha, Postemergence)
2: Plant response rating, B. signalgrass ([3]; Rate 500 g/ha, Preemergence) | Plant response rating, Cocklebur ([4]; Rate 500 g/ha, Postemergence) | Redroot pigweed plant response rating ([8]; Rate 62 g/ha, Postemergence) | Plant response rating, Velvetleaf ([11]; Rate 250 g/ha, Postemergence) | Plant response rating, Velvetleaf ([11]; Rate 500 g/ha, Postemergence) | Plant response rating, Wheat ([12]; Rate 250 g/ha, Postemergence) | Plant response rating, Wheat ([12]; Rate 500 g/ha, Postemergence)
0: Plant response rating, Bedstraw [1, 13] | Bedstraw plant response rating ([1]; Rate 62 g/ha, Postemergence) | Plant response rating, Bedstraw ([1]; Rate 125 g/ha, Preemergence) | Plant response rating, Bedstraw ([1]; Rate 250 g/ha, Preemergence) | Plant response rating, Bedstraw ([1]; Rate 500 g/ha, Preemergence) | Plant response rating, Blackgrass [2, 13] | Blackgrass plant response rating ([2]; Rate 62 g/ha, Postemergence) | Blackgrass plant response rating ([2]; Rate 125 g/ha, Postemergence) | Plant response rating, Blackgrass ([2]; Rate 125 g/ha, Preemergence) | Plant response rating, Blackgrass ([2]; Rate 250 g/ha, Postemergence) | Plant response rating, Blackgrass ([2]; Rate 250 g/ha, Preemergence) | Plant response rating, Blackgrass ([2]; Rate 500 g/ha, Postemergence) | Plant response rating, Blackgrass ([2]; Rate 500 g/ha, Preemergence) | B. signalgrass plant response rating ([3]; Rate 62 g/ha, Preemergence) | Plant response rating, B. signalgrass ([3]; Rate 125 g/ha, Preemergence) | Plant response rating, Cocklebur [4, 13] | Plant response rating, Cocklebur ([4]; Rate 125 g/ha, Preemergence) | Plant response rating, Cocklebur ([4]; Rate 250 g/ha, Preemergence) | Plant response rating, Cocklebur ([4]; Rate 500 g/ha, Preemergence) | Plant response rating, Corn (corn (Zea mays); [13]) | Plant response rating, Corn (corn (Zea mays); Rate 125 g/ha, Preemergence) | Plant response rating, Corn (corn (Zea mays); Rate 250 g/ha, Preemergence) | Plant response rating, Corn (corn (Zea mays); Rate 500 g/ha, Preemergence) | Plant response rating, Crabgrass [5, 13] | Plant response rating, Crabgrass ([5]; Rate 125 g/ha, Preemergence) | Plant response rating, Crabgrass ([5]; Rate 250 g/ha, Preemergence) | Plant response rating, Crabgrass ([5]; Rate 500 g/ha, Preemergence) | Plant response rating, Giant foxtail [6, 13] | Plant response rating, Giant foxtail ([6]; Rate 125 g/ha, Preemergence) | Plant response rating, Giant foxtail ([6]; Rate 250 g/ha, Preemergence) | Plant response rating, Giant foxtail ([6]; Rate 500 g/ha, Preemergence) | Plant response rating, Morningglory [7, 13] | Plant response rating, Morningglory ([7]; Rate 125 g/ha, Preemergence) | Plant response rating, Morningglory ([7]; Rate 250 g/ha, Preemergence) | Plant response rating, Redroot pigweed [8, 13] | Plant response rating, Redroot pigweed ([8]; Rate 125 g/ha, Preemergence) | Plant response rating, Redroot pigweed ([8]; Rate 250 g/ha, Preemergence) | Plant response rating, Redroot pigweed ([8]; Rate 500 g/ha, Preemergence) | Plant response rating, Nutsedge [9, 13] | Nutsedge plant response rating ([9]; Rate 62 g/ha, Postemergence) | Nutsedge plant response rating ([9]; Rate 125 g/ha, Postemergence) | Plant response rating, Nutsedge ([9]; Rate 125 g/ha, Preemergence) | Plant response rating, Nutsedge ([9]; Rate 250 g/ha, Postemergence) | Plant response rating, Nutsedge ([9]; Rate 250 g/ha, Preemergence) | Plant response rating, Nutsedge ([9]; Rate 500 g/ha, Preemergence) | Plant response rating, Sugarbeets [10, 13] | Plant response rating, Sugarbeets ([10]; Rate 125 g/ha, Preemergence) | Plant response rating, Sugarbeets ([10]; Rate 250 g/ha, Preemergence) | Plant response rating, Sugarbeets ([10]; Rate 500 g/ha, Preemergence) | Plant response rating, Velvetleaf [11, 13] | Plant response rating, Velvetleaf ([11]; Rate 125 g/ha, Preemergence) | Plant response rating, Velvetleaf ([11]; Rate 250 g/ha, Preemergence) | Plant response rating, Wheat [12, 13] | Plant response rating, Wheat ([12]; Rate 125 g/ha, Preemergence) | Plant response rating, Wheat ([12]; Rate 250 g/ha, Preemergence) | Plant response rating, Wheat ([12]; Rate 500 g/ha, Preemergence) | Plant response rating, Wild oats (wild oat (Avena fatua); [13]) | Plant response rating, Wild oats (wild oat (Avena fatua); Rate 125 g/ha, Preemergence) | Plant response rating, Wild oats (wild oat (Avena fatua); Rate 250 g/ha, Preemergence) | Plant response rating, Wild oats (wild oat (Avena fatua); Rate 500 g/ha, Preemergence)
7: Plant response rating, Bedstraw ([1]; Rate 250 g/ha, Postemergence) | Plant response rating, Bedstraw ([1]; Rate 500 g/ha, Postemergence) | Plant response rating, Redroot pigweed ([8]; Rate 500 g/ha, Postemergence) | Sugarbeets plant response rating ([10]; Rate 62 g/ha, Postemergence) | Sugarbeets plant response rating ([10]; Rate 125 g/ha, Postemergence)
1: B. signalgrass plant response rating ([3]; Rate 62 g/ha, Postemergence) | B. signalgrass plant response rating ([3]; Rate 125 g/ha, Postemergence) | Plant response rating, B. signalgrass ([3]; Rate 250 g/ha, Postemergence) | Plant response rating, B. signalgrass ([3]; Rate 250 g/ha, Preemergence) | Plant response rating, B. signalgrass ([3]; Rate 500 g/ha, Postemergence) | Cocklebur plant response rating ([4]; Rate 62 g/ha, Postemergence) | Cocklebur plant response rating ([4]; Rate 125 g/ha, Postemergence) | Plant response rating, Cocklebur ([4]; Rate 250 g/ha, Postemergence) | Corn plant response rating (corn (Zea mays); Rate 62 g/ha, Postemergence) | Corn plant response rating (corn (Zea mays); Rate 125 g/ha, Postemergence) | Plant response rating, Corn (corn (Zea mays); Rate 250 g/ha, Postemergence) | Plant response rating, Corn (corn (Zea mays); Rate 500 g/ha, Postemergence) | Crabgrass plant response rating ([5]; Rate 62 g/ha, Postemergence) | Crabgrass plant response rating ([5]; Rate 125 g/ha, Postemergence) | Plant response rating, Crabgrass ([5]; Rate 250 g/ha, Postemergence) | Plant response rating, Crabgrass ([5]; Rate 500 g/ha, Postemergence) | Giant foxtail plant response rating ([6]; Rate 62 g/ha, Postemergence) | Giant foxtail plant response rating ([6]; Rate 125 g/ha, Postemergence) | Plant response rating, Giant foxtail ([6]; Rate 250 g/ha, Postemergence) | Plant response rating, Giant foxtail ([6]; Rate 500 g/ha, Postemergence) | Morningglory plant response rating ([7]; Rate 125 g/ha, Postemergence) | Velvetleaf plant response rating ([11]; Rate 62 g/ha, Postemergence) | Velvetleaf plant response rating ([11]; Rate 125 g/ha, Postemergence) | Plant response rating, Velvetleaf ([11]; Rate 500 g/ha, Preemergence) | Wheat plant response rating ([12]; Rate 62 g/ha, Postemergence) | Wheat plant response rating ([12]; Rate 125 g/ha, Postemergence) | Wild oats plant response rating (wild oat (Avena fatua); Rate 62 g/ha, Postemergence) | Wild oats plant response rating (wild oat (Avena fatua); Rate 125 g/ha, Postemergence) | Plant response rating, Wild oats (wild oat (Avena fatua); Rate 250 g/ha, Postemergence) | Plant response rating, Wild oats (wild oat (Avena fatua); Rate 500 g/ha, Postemergence)
3: Bedstraw plant response rating ([1]; Rate 125 g/ha, Postemergence) | Redroot pigweed plant response rating ([8]; Rate 125 g/ha, Postemergence)
6: Plant response rating, Redroot pigweed ([8]; Rate 250 g/ha, Postemergence)
10: Plant response rating, Morningglory ([7]; Rate 500 g/ha, Postemergence)
